Values quoted from earlier work as cited in patent US7838081B2, “Liquor that avoids the apparition of stains produced by fungi in lignocellulosic materials such as wood” (priority 2005, dated 2010).

For `Oc1c(Br)cc(Br)cc1Br` [2,4,6 Tribromophenol], the “LD50 acute termal rabbit” value (rabbit) is listed as greater than 8.000 mg/kg, the “LD50 acute oral rat” value (rat) is listed as greater than 5.000 mg/kg and the “Results against stains of the wood (in words)” value (stains of the wood) is listed as “good results”.
In the case of `[Cu+2].[O-]c1cccc2cccnc12.[O-]c1cccc2cccnc12` [Copper 8 oxiquinolinate (PQ-8), Copper 8 oxiquinolinate], the “LD50 acute termal rabbit” value (rabbit) is listed as greater than 2.000 mg/kg and the “LD50 acute oral rat” value (rat) is listed as 3.900 to 4.700 mg/kg.
In the case of `Oc1c(Cl)c(Cl)c(Cl)c(Cl)c1Cl` [Pentachlorophenol], the “Results against stains of the wood (in words)” value (stains of the wood) is given as “good results”.
